Test [1] deals with T1, Alpha-1D adrenergic receptor (Homo sapiens, UniProt P25100).
T1 sequence (P25100 whole entry): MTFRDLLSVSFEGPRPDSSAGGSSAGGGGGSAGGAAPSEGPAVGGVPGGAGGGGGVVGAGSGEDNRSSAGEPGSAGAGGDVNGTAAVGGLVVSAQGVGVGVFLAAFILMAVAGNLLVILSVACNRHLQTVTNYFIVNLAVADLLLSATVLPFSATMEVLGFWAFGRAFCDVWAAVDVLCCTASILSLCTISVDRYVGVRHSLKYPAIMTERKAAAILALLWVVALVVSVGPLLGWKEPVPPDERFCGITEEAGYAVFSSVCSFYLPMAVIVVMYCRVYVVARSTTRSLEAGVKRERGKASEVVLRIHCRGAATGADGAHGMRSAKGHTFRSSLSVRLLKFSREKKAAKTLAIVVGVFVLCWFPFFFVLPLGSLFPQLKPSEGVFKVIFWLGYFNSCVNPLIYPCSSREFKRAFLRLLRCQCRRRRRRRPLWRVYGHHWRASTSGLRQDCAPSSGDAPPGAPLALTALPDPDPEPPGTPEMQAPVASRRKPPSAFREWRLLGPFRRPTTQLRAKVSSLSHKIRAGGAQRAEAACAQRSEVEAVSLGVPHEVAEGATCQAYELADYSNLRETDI
The test can be described thus: Displacement of [3H]prazosin from human recombinant alpha1D adrenergic receptor expressed in CHO cell membranes after 30 mins.

For test [2], the target named is T2, Alpha-1A adrenergic receptor (Homo sapiens, UniProt P35348).
T2 sequence (P35348 whole entry): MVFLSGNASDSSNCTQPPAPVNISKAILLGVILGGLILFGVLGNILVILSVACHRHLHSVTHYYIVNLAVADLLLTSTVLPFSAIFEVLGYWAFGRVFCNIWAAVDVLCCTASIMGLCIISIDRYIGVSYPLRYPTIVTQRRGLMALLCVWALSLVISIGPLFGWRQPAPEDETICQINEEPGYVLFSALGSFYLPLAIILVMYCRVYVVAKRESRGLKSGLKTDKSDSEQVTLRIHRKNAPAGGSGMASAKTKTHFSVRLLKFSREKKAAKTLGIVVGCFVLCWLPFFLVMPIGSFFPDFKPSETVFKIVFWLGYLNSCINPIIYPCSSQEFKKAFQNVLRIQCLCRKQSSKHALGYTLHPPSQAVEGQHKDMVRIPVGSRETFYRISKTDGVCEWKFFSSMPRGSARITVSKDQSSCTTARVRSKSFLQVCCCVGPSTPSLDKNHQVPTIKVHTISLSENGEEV
The test can be described thus: biochemical.
Description: Displacement of [3H]prazosin from human recombinant alpha1A adrenergic receptor expressed in CHO cell membranes after 30 mins

For test [3], the target named is T3, 5-hydroxytryptamine receptor 1A (Homo sapiens) (UniProt P08908).
T3 sequence (whole entry): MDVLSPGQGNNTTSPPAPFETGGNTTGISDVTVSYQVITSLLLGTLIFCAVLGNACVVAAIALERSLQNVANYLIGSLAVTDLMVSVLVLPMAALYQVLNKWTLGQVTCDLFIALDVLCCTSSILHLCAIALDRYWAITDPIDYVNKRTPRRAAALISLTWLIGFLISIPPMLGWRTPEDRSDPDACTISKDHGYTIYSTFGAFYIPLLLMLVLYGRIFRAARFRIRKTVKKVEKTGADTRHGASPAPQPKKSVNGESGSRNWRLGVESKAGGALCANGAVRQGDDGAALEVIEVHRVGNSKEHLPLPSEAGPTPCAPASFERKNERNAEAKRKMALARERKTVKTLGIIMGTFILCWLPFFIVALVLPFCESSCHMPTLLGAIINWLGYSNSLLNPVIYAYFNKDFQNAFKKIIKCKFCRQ
The note with it: HeLa.
Description: Partial agonist activity at human 5HT1A receptor expressed in HeLa cell membranes after 20 mins by [35S]GTPgammaS binding assay

Test [4] deals with PC-3. The experiment in a line: Cytotoxicity against human PC3 cells assessed as concentration required for tumor growth inhibition after 48 hrs by sulforhodamine B assay. Type of test: functional. To be noted: PC-3, 48 h. (Sulforhodamine B stains cellular protein and so reports cell mass.)
The target in test [5] is T4, Alpha-1B adrenergic receptor (Homo sapiens, UniProt P35368).
T4 sequence (P35368 whole entry): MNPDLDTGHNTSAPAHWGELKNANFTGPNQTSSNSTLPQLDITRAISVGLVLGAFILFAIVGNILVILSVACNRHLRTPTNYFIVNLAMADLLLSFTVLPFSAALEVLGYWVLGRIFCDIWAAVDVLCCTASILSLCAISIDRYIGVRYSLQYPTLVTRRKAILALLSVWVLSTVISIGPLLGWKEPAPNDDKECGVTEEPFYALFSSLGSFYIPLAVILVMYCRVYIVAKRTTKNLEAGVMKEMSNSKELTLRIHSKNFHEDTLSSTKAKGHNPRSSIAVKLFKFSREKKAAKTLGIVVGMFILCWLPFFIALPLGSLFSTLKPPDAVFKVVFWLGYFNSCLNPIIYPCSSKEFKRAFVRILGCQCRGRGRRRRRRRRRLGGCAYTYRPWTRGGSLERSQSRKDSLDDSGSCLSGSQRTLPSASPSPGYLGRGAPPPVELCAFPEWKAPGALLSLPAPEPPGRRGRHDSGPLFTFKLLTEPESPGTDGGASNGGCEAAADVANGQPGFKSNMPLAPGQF
The experiment in a line: Displacement of [3H]prazosin from human recombinant alpha1B adrenergic receptor expressed in CHO cell membranes after 30 mins. (In general: Displacement assays read how much labelled ligand stays bound in the presence of the test substance.)

Test [6] addresses T5, 5-hydroxytryptamine receptor 1A (Homo sapiens, UniProt P08908).
T5 sequence (P08908 whole entry): T3 sequence (whole entry)
The test can be described thus: Displacement of [3H]8-OH-DPAT from human recombinant 5HT1A receptor expressed in HeLa cell membranes after 30 mins.

The subject of test [7] is PC-3. The test can be described thus: Cytotoxicity against human PC3 cells after 48 hrs by sulforhodamine B assay. It is filed as functional. To be noted: PC-3, 48 h.
For test [8], the target named is T3, 5-hydroxytryptamine receptor 1A (Homo sapiens). The note with it: HeLa. The source holds these as a separate data set.
Description: Agonist activity at human 5HT1A receptor expressed in HeLa cell membranes by [35S]GTPgammaS binding assay
Test [9] relates to PC-3. The test can be described thus: Ratio of GI50 for human PC3 cells transfected with sialpha1D-AR to GI50 for human PC3 cells. It is filed as functional.
Test [10] concerns PC-3. The experiment in a line: Cytotoxicity against human PC3 cells transfected with siGLO assessed as concentration required for tumor growth inhibition after 48 hrs by sulforhodamine B assay. Type of test: functional. To be noted: PC-3, 48 h.
The subject of test [11] is PC-3. The test can be described thus: Cytotoxicity against human PC3 cells transfected with sialpha1D-AR after 48 hrs by sulforhodamine B assay. Type of test: functional. To be noted: PC-3, 48 h; for CC50: read-out: LC50 (the source's name).
The subject of test [12] is PC-3. The test can be described thus: Cytotoxicity against human PC3 cells transfected with siGLO after 48 hrs by sulforhodamine B assay. It is filed as functional. To be noted: PC-3, 48 h; for CC50: read-out: LC50 (the source's name).
Test [13] concerns PC-3. The test can be described thus: Ratio of concentration required for tumor growth inhibition of human PC3 cells transfected with sialpha1D-AR to concentration required for tumor growth inhibition of human PC3 cells. Type of test: functional.
Test [14] concerns PC-3. The test can be described thus: Cytotoxicity against human PC3 cells transfected with sialpha1D-AR assessed as concentration required for tumor growth inhibition after 48 hrs by sulforhodamine B assay. To be noted: PC-3, 48 h. Type of test: functional.
Test [15] deals with PC-3. The experiment in a line: Ratio of LC50 for human PC3 cells transfected with sialpha1D-AR to LC50 for human PC3 cells. It is filed as functional.

For orientation: Ki means a dissociation constant, usually derived from enzyme kinetics or from competition with a known ligand. As a reminder, the TGI is the concentration at which net growth stops. By GI50 is commonly meant the concentration at which growth is held to half of that of the control. High values mean less potent growth inhibition, low ones more potent growth inhibition. A word on the LC50: it is the concentration lethal to half of the exposed cells or organisms.

As to `COc1ccccc1OCCNC[C@@H]1COCC(c2ccccc2)(c2ccccc2)O1`, the Ki in test [1] is 1.38 nM; in test [2], 16.6 nM; in test [5], 21.9 nM; in test [6] it was 0.603 nM. In addition, in test [3], the pD2 was 7.7. Moreover, the TGI in test [4] is 9 µM. Besides, the GI50 in test [7] was 4 µM.
In turn, `COc1ccccc1N1CCN(CCN2C(=O)CC3(CCCC3)CC2=O)CC1` returned a pD2 in test [8] of 9.27.
In [8], `COc1ccccc1OCCNCC1COCC(c2ccccc2)(c2ccccc2)O1` (racemic) yielded a pD2 of 9.4. Besides, the Ki in test [1] was 1.15 nM; in test [2] it was 27.5 nM; in test [5], 56.2 nM; in [6] it was 0.661 nM. In test [4], the TGI came out at 16 µM. This molecule also had a GI50 in test [7] of 9 µM.
For the molecule `NCCc1c[nH]c2ccc(O)cc12`, in test [8], the pD2 was found to be 7.3.
For `c1ccc(OCCNC[C@@H]2COCC(c3ccccc3)(c3ccccc3)O2)cc1`, the RatioGI50 in [9] worked out at 17. In addition, the values for the TGI in [10], in test [14] and in test [4] were 2.5 µM, 27.1 µM and 2.1 µM, respectively. Besides, the GI50 came to 10.2 µM in test [11], 0.9 µM in test [12] and 0.6 µM in test [7]. Moreover, the figures for the CC50 in [11] and in test [12] were 52.1 µM and 5.8 µM, respectively. Besides, the inhibitory constant (Ki) was 3.24 nM in test [1], 129 nM in [2], 52.5 nM in test [5] and 1.48 nM in test [6]. In addition, in test [13], the Ratio is on record as 12.9. This molecule yielded a pD2 in test [3] of 7.82. Moreover, the RatioLC50 in test [15] was determined as 13. In test [7], this molecule displayed an LC50 of 4 µM.
Molecule `COc1cc2nc(N3CCN(C(=O)C4COc5ccccc5O4)CC3)nc(N)c2cc1OC` (stereo unspecified) [DOXAZOSIN] yielded a concentration for 50% growth inhibition (GI50) in test [7] of 26.9 µM.
Regarding `COc1cccc(OC)c1OCCNC[C@H]1COc2ccccc2O1`, the Ki in test [6] is 2.45 nM.
On the same count and under the same terms, then `COc1cccc(OC)c1OCCNC[C@@H]1COc2ccccc2O1`, with 40.7 nM.
`COc1ccccc1OCCNC[C@H]1COCC(c2ccccc2)(c2ccccc2)O1`: the Ki is 25.1 nM in test [1], 257 nM in test [2], 417 nM in [5] and 0.309 nM in test [6]. This molecule also displayed a pD2 in [3] of 9.19. Moreover, in [4], the TGI was 34 µM. The same molecule yielded a GI50 in [7] of 21 µM.
Take `c1ccc(OCCNC[C@H]2COCC(c3ccccc3)(c3ccccc3)O2)cc1`: the values for the TGI in test [10], in test [14] and in test [4] were 41.7 µM, 49.2 µM and 43 µM, respectively. The GI50 in [11] amounted to 20.7 µM; in test [12] it was 22.8 µM; in [7], 19.1 µM. The CC50 in test [11] and in [12] was greater than 300 µM each time. Besides, the Ki in test [1] is 83.2 nM; in test [2], 437 nM; in [5] it was 170 nM; in [6] it was 0.398 nM. Further, the pD2 in [3] was determined as 9.19. Moreover, in test [7], the LC50 is greater than 300 µM.
`COc1cccc(OC)c1OCCNCC1COCC(c2ccccc2)(c2ccccc2)O1` (racemic) came in with a pD2 in test [8] of 8.28. The Ki in [1] was 66.1 nM; in test [2], 339 nM; in [5], 324 nM; in test [6], 1.41 nM. Also, the TGI in test [4] came to 32 µM. The same molecule yielded a GI50 in test [7] of 14 µM. In addition, in [7], the median lethal concentration (LC50) came to 45 µM.
`COc1cccc(OC)c1OCCNC[C@@H]1COCC(c2ccccc2)(c2ccccc2)O1` returned a pD2 in test [8] of 5.88. Also, the Ki in test [1] was 56.2 nM; in [2], 166 nM; in [5], 195 nM; in test [6], 44.7 nM. For the same molecule, the TGI in test [4] was 58 µM. Halving of growth in test [7] (GI50) required 32 µM. In test [7], this molecule had an LC50 of 65 µM.
As to `c1ccc(OCCNCC2COCC(c3ccccc3)(c3ccccc3)O2)cc1` (racemic), the pD2 in test [8] was 9.11. For the same molecule, the TGI in test [10] amounted to 7.1 µM; in test [14] it was 25 µM; in test [4], 6 µM. The GI50 in test [11] was 23.6 µM; in test [12], 4.1 µM; in [7], 3 µM. In addition, the CC50 was determined as 39.8 µM in [11] and 10.7 µM in [12]. Moreover, the Ki in [1] is 3.63 nM; in [2], 170 nM; in [5], 120 nM; in test [6] it was 0.589 nM. For the same molecule, the LC50 in test [7] stood at 8 µM.
On to `COc1cccc(OC)c1OCCNCC1COc2ccccc2O1` (stereo unspecified), for which the GI50 in test [7] was 64.6 µM.
Molecule `COc1cccc(OC)c1OCCNC[C@H]1COCC(c2ccccc2)(c2ccccc2)O1` gave a pD2 in [8] of 8.3. The Ki in [1] is 724 nM; in test [2] it was greater than 1000 nM; in test [5] it was 1660 nM; in test [6] it was 0.55 nM. The TGI in test [4] worked out at 30 µM. In test [7], this molecule had a GI50 of 16 µM. The LC50 in [7] came to 37 µM.
